Read-outs that look alike come from different tables or passages of the source.
Columns and labels:
Acute toxicity (LD50) = conditions: in vivo, mouse, mortality within 7 days
Source text: 2. Acute toxicity The standard method for the determination of the LD50 values or LD50 ranges via the mortality occurring in Naval Medical Research Institute mice within 7 days after a single intravenous (i.v.), intraperitoneal (i.p.) or oral (p.o.) administration was used.

anesthetized male rats = assay: EEG hypoxia-tolerance test (antihypoxic / cerebroprotective action); format: in vivo, rat; conditions: ip, read-out: % change in the EEG-RL (EEG hypoxia recovery latency period); for change in vivo at 25 mg/kg: 25 mg/kg i.p.
Protocol: The compounds according to the invention were tested for a cerebroprotective action towards damage caused by hypoxia by means of the EEG hypoxia-tolerance test (EEG: Electroencephalogram) comparing with the most important representatives of types of compounds which belong to the state of the art. In this method, anesthetized male rats with implanted EEG electrodes are subjected to progressive hypoxia by passing nitrogen into a chamber. […] The criterion used for assessment of an antihypoxic action is the EEG hypoxia recovery latency period (EEG-RL), which is defined as the time from the opening of the chamber after onset of EEG silence until the first signals appear again. […] The compounds according to the invention were administered intraperitoneally 15 minutes before the start of hypoxia. The group size was n =8.

rat = assay: Gamma-butyrolactone test on the rat (EEG); format: in vivo
Source text: (b) Gamma-butyrolactone test on the rat
It is known from the literature (L.I. Wolfson et al., J. Neurochem. 29, 777 (1977)) that gamma-butyrolactone (GBL), inter alia, induces metabolic disturbances in the brain which can be followed by changes in the EEG. The compounds of the formula I are able to antagonize this action of GBL on the EEG.

[1] = system: naive mice of the male sex; assay: Scopolamine-induced retrograde amnesia in the passive avoidance test; format: in vivo, mouse; conditions: for minimal effective dose: read-out: minimal effective dose (MED) countering scopolamine
Protocol: (a) Effect on the scopolamine-induced retrograde amnesia in the passive avoidance test
The test arrangement comprises a light/dark box with an electrifiable mesh floor in the dark section. 90 minutes after administration of placebo and product, naive mice of the male sex are treated subcutaneously with scopolamine hydrobromide (3 mg/kg). The mice are placed in the light section of the box 5 minutes later. After transferring into the dark section they receive there an electric shock to the feet which produces an unpleasant sensation. 24 hours thereafter, each mouse is placed once in the light section of the test apparatus, and the residence time (max. 180 seconds) is measured. […] The significant action of a test substance is calculated, using a median test, by comparison with the control group. The minimal effective dose (MED) of a product is regarded as that which results in a significant action countering scopolamine.

[2] = rat, 15 minutes before hypoxia, n = 8, vs untreated control, shortening (negative) = protective
[3] = rat, 50 mg/kg i.p., 15 minutes before hypoxia, n = 8, vs untreated control, shortening (negative) = protective

SMILES | change in vivo at 25 mg/kg (anesthetized male rats; [2]) | LD50 at 168 h (Acute toxicity (LD50); iv, single i.v. administration) | also measured
Cc1cc(N2CCSCC2)c(C#N)c(C)n1 [3-Cyano-2,6-dimethyl-4-(4-thiomorpholinyl)pyridine, reference compound] | – | – | LD50 at 168 h (Acute toxicity (LD50); ip, single i.p. administration): 150 to 300 mg/kg
c1ccc(Oc2cccnc2)cc1 [3-Phenoxypyridine, reference compound] | -14% | – | LD50 at 168 h (Acute toxicity (LD50); po, single p.o. administration): 400 to 630 mg/kg
Cc1cc(N2CCSCC2)c(C#N)c(C)[n+]1[O-].Cl [Example 1, 3-Cyano-2,6-dimethyl-4-(4-thiomorpholinyl)pyridine 1-oxide hydrochloride] | -50% | 135 mg/kg | protective action against GBL-induced EEG changes (rat; 100 and 200 mg/kg i.p.): strong, dose-dependent protective action; protective action against GBL compared with piracetam (rat; i.p.): far exceeded that of the comparison product piracetam; minimal effective dose ([1]; mouse, oral, 90 minutes before scopolamine 3 mg/kg s.c.): 25 mg/kg; effectiveness relative to piracetam (from MED) ([1]; mouse, oral, passive avoidance): four times as effective as piracetam; LD50 at 168 h (Acute toxicity (LD50); po, single p.o. administration): 1190 mg/kg
Cc1cc(N2CCOCC2)c([N+](=O)[O-])c(C)[n+]1[O-] [Example 5, 2,6-Dimethyl-4-(4-morpholinyl)-3-nitropyridine 1-oxide] | -16% | > 200 mg/kg | –
Cc1cc(N2CCCNCC2)c([N+](=O)[O-])c(C)[n+]1[O-] [Example 11] | – | 200 mg/kg | change in vivo at 50 mg/kg (anesthetized male rats; Rattus norvegicus): -23%
Cc1cc(N2CCCC2)c(C#N)c(C)[n+]1[O-] [Example 13] | – | 200 mg/kg | change in vivo at 50 mg/kg (anesthetized male rats; [3]): -32%
Cc1cc(N2CCCCC2)c(C#N)c(C)[n+]1[O-] [Example 14] | – | 100 to 200 mg/kg | change in vivo at 50 mg/kg (anesthetized male rats; [3]): -44%
Cc1cc(N2CCCCCC2)c(C#N)c(C)[n+]1[O-] [Example 22] | -38% | 50 to 100 mg/kg | –
Cc1cc(N2CCN(c3ccc(F)cc3)CC2)c([N+](=O)[O-])c(C)[n+]1[O-] [Example 26] | -27% | 200 mg/kg | –
Cc1cc(N2CCCCC2)c([N+](=O)[O-])c(C)[n+]1[O-] [Example 28] | -12% | 100 to 200 mg/kg | –
COC(=O)c1c(C)nc(C)c(C#N)c1-c1ccccc1[N+](=O)[O-] [Methyl 3-cyano-2,6-dimethyl-4-(2-nitrophenyl)pyridine-5-carboxylate, reference compound] | – | 50 to 100 mg/kg | change in vivo at 50 mg/kg (anesthetized male rats; [3]): 16%
NC(=O)CN1CCCC1=O [piracetam, 2-oxo-1-pyrrolidineacetamide, reference compound] | – | – | minimal effective dose ([1]; Mus musculus, po): 100 mg/kg

Reference: patent US4859663A, “Multiply substituted pyridine 1-oxide compounds which are useful in treating brain disorders” (Hoechst Aktiengesellschaft, priority 1985, dated 1989)
